Experimental data: paper PMC10100771, “A Novel CMY Variant Confers Transferable High-Level Resistance to Ceftazidime-Avibactam in Multidrug-Resistant Escherichia coli” (Microbiology Spectrum, 2023)
Converted amounts (≈) assume the structure as drawn. Where two headings read alike, the source gives them in different places.

What was measured:
[1] = test system: E. coli DH5α-pCR2.1-CMY-178; test: MIC by agar dilution, transformant containing blaCMY-178; format: cell-based, Escherichia coli
Method: (§1) Antimicrobial susceptibility testing was performed and interpreted according to the Clinical and Laboratory Standards Institute (CLSI) guidelines and breakpoints (M100, 31st edition) by the agar dilution method. E. coli ATCC 25922 and K. pneumoniae ATCC 700603 served as control strains.
(§2) The antibiotics we used included meropenem (Hanhui Pharmaceutical Co., Ltd., China), imipenem (Merck Sharp & Dohme Corp., USA), cefepime (Jiangsu Hengrui Pharmaceutical Co., Ltd., China), piperacillin (Suzhou Erye Pharmaceutical Co., Ltd., China), ceftazidime (Guangdong Jincheng Jinsu Pharmaceutical Co., Ltd., China), tazobactam (Meilunbio, China), avibactam (MedChemExpress, USA), aztreonam (Sigma-Aldrich, USA), amikacin (Meilunbio), cefuroxime (Esseti Farmaceutici S.r.l., Italy), fosfomycin (Harbin Pharmaceutical Group Co., Ltd. China), levofloxacin (Daiichi Sankyo Company Limited, Beijing, China), and cefotaxime (North China Pharmaceutical Hebei Huamin Pharmaceutical Co., Ltd., China).
(§3) The blaCMY cloning was performed using a TA cloning kit (Invitrogen, Shanghai, China). The blaCMY-178 gene combined with its predicted promoter was amplified from isolate AR13438. Then, the blaCMY-178 gene was cloned into the linearized vector pCR2.1 using T4 DNA ligase (Invitrogen). The blaCMY-172 gene was cloned from KPCZA02 with the same method. The resulting plasmids were chemically transformed into E. coli DH5α. The positive transformants were identified by blue-white screening in MH agar containing 50 μg/mL kanamycin and were further confirmed by Sanger sequencing. The pCR2.1 blank vector was also transformed into E. coli DH5α as a control. The primers used for cloning were CMY-F and CMY-R (see Table S2 in the supplemental material). Relative CMY expression was measured by reverse transcription-quantitative PCR as described previously ([34]). Specific quantitative PCR (qPCR) primers (q-recA-F/R and q-CMY-F/R) were designed (Table S2).

CMY-2 = target: T1, CMY-2 (Klebsiella pneumoniae, UniProt Q48434); test: Ki by direct competition assay with nitrocefin, CMY-2; format: biochemical
T1 construct: were amplified without a signal peptide and cloned into the pET28a; His8 (N); made in house; host or cells: E. coli BL21(DE3)
Method: (§4) blaCMYs (including blaCMY-2, blaCMY-172, and blaCMY-178) were amplified without a signal peptide and cloned into the pET28a, which led to the introduction of an N-terminal His8-Tag.The recombinant plasmids were transformed into E. coli BL21(DE3) and selected using Sanger sequencing. Lysogenic broth containing 50 μg/mL kanamycin was inoculated with transformants and grown to reach an OD600 of 0.6. A final concentration of 1 mM isopropyl-β-D-thiogalactopyranoside (IPTG) was added into the resulting culture, which was shaken at 18°C overnight. The culture broth was centrifuged to harvest bacteria. The pellet was resuspended in lysis buffer (50 mM Tris-HCl and 300 mM NaCl (pH 7.5)) and disrupted using a JN-02C French press (JNBIO, Guangzhou, China) at 1,100 bar. Then, the cell debris was removed by centrifugation at 11,000 rpm for 40 min at 4°C. The supernatant was added to an Ni column, and the absorbed protein was eluted by the eluent buffer (lysis buffer with 300 mM imidazole).
(§5) Enzymatic activities were measured using a D8 UV-visible spectrophotometer (Rumqee, Shanghai, China) in phosphate-buffered saline (PBS; pH 7.2) at room temperature. Substrates tested included nitrocefin, ceftazidime, and avibactam. […] The initial reaction velocities (v) were measured and Ki values were calculated by fitting data into equation 1 with GraphPad Prism v9.0.0 ([37]). […]

CMY-178 = target: T2, CMY-178 (Klebsiella pneumoniae, UniProt Q48434, DEL310-312/N366I/N90T); test: Ki by direct competition assay with nitrocefin, CMY-178; format: biochemical, Escherichia coli; conditions: for Ki: CMY-178, competition with 100 μM nitrocefin, 2-min incubation, mean ± SD; for Increase of Ki value of CMY-178 compared with CMY-172: CMY-178 vs CMY-172
T2 construct: were amplified without a signal peptide and cloned into the pET28a; His8 (N); made in house; host or cells: E. coli BL21(DE3)
Method: as §4
Enzymatic activities were measured using a D8 UV-visible spectrophotometer (Rumqee, Shanghai, China) in phosphate-buffered saline (PBS; pH 7.2) at room temperature. Substrates tested included nitrocefin, ceftazidime, and avibactam. The extinction coefficient and wavelength of nitrocefin are 17,400 M^−1 · cm^−1 and 482 nm, respectively. […] The initial reaction velocities (v) were measured and Ki values were calculated by fitting data into equation 1 with GraphPad Prism v9.0.0 ([37]). (1) v=Vmax[S]/[S]+Km NCF (1+[I]/Ki)

[2] = test system: E. coli DH5α-pCR2.1-CMY-172; test: MIC by agar dilution, transformant containing blaCMY-172; format: cell-based; conditions: Escherichia coli
Method: as §1, §2, §3

E. coli strain AR13438 = test: MIC by agar dilution, clinical isolate AR13438; format: cell-based, Escherichia coli; conditions: Escherichia coli; AR13438, clinical E. coli isolate (blaCMY-178, blaTEM-1, blaCTX-M-27); agar dilution
Method: as §1, §2

[3] = test system: E. coli DH5α-pCR2.1-CMY-2; test: MIC by agar dilution, transformant containing blaCMY-2; format: cell-based; conditions: Escherichia coli
E. coli J53-KPCZA02 = test: MIC by agar dilution, conjugant containing pKPCZA02_4; format: cell-based; conditions: Escherichia coli, J53KPCZA02, E. coli J53-KPCZA02 (blaCMY-172)
Method: as §1
(§6) Conjugation experiments were performed by filter mating using sodium-azide-resistant E. coli J53 as the recipient, as described previously. Transconjugants were selected with MH agar containing 100 μg/mL sodium azide and 4 μg/mL ceftazidime-avibactam; furthermore, transconjugants were named J53-AR13438 and J53-KPCZA02, respectively. We compared genomes of AR13438 and J53 to select a unique gene (gtrA) to J53. […] The primers used for PCR were gtrA-F, gtrA-R, CMY-F, and CMY-R (Table S1). The transfer frequencies were calculated as the number of transconjugants (CFU/mL) divided by the number of recipients (CFU/mL). Donors and recipients were mixed at 1:1 for the transfer frequency experiment. S1-PFGE and Southern blotting were performed to define the location of blaCMY-178 and confirm the transmission of the plasmid as described previously ([35]). The MIC profiles of transconjugants were also determined by the agar dilution method.

E. coli J53 = test: MIC by agar dilution, recipient E. coli J53; format: cell-based; conditions: Escherichia coli
Method: as §1, §2
Conjugation experiments were performed by filter mating using sodium-azide-resistant E. coli J53 as the recipient, as described previously. Transconjugants were selected with MH agar containing 100 μg/mL sodium azide and 4 μg/mL ceftazidime-avibactam; furthermore, transconjugants were named J53-AR13438 and J53-KPCZA02, respectively. We compared genomes of AR13438 and J53 to select a unique gene (gtrA) to J53. The blaCMY-178-postive transconjugants were confirmed by PCR and MALDI-TOF MS (see Fig. S9 in the supplemental material). The primers used for PCR were gtrA-F, gtrA-R, CMY-F, and CMY-R (Table S1). The transfer frequencies were calculated as the number of transconjugants (CFU/mL) divided by the number of recipients (CFU/mL). Donors and recipients were mixed at 1:1 for the transfer frequency experiment. S1-PFGE and Southern blotting were performed to define the location of blaCMY-178 and confirm the transmission of the plasmid as described previously ([35]). The MIC profiles of transconjugants were also determined by the agar dilution method.

CMY-172 = target: T3, CMY-172 (Klebsiella pneumoniae, UniProt Q48434, DEL310-312/N366I); test: Ki by direct competition assay with nitrocefin, CMY-172; format: biochemical; conditions: competition with 100 μM nitrocefin, 2-min incubation, mean ± SD
T3 construct: were amplified without a signal peptide and cloned into the pET28a; His8 (N); made in house; host or cells: E. coli BL21(DE3)
Method: as §4, §5

[4] = test system: K. pneumoniae isolate KPCZA02; test: microbe, parasite or virus in culture; format: cell-based; conditions: Klebsiella pneumoniae
Method: as §1

E. coli DH5α = test: MIC by agar dilution, E. coli DH5α; format: cell-based; conditions: Escherichia coli
Method: as §1, §2

E. coli J53-AR13438 = test: MIC by agar dilution, conjugant containing pAR13438_2; format: cell-based; conditions: Escherichia coli, J53AR13438, E. coli J53-AR13438 (blaCMY-178)
Method: as §1, §6

E. coli DH5α-pCR2.1 = test: MIC by agar dilution, DH5α with blank vector pCR2.1; format: cell-based; conditions: Escherichia coli
Method: as §1, §2, §3

SMILES | MIC ([1]; Escherichia coli, E. coli DH5α-pCR2.1-CMY-178, agar dilution) | Increase of MIC by blaCMY-178 compared with blaCMY-172 ([1]; transformants in E. coli DH5α) | Ki (CMY-2; CMY-2, competition with 100 μM nitrocefin, 2-min incubation, mean ± SD, read-out: Ki) | Ki (CMY-178) | Increase of Ki value of CMY-178 compared with CMY-172 (CMY-178) | MIC [2] | MIC (E. coli strain AR13438) | MIC [3] | MIC (E. coli J53-KPCZA02) | MIC (E. coli J53) | Ki (CMY-172) | MIC [4] | MIC (E. coli DH5α) | MIC (E. coli J53-AR13438) | MIC (E. coli DH5α-pCR2.1) | Ki (CMY-2)
CC(C)(O/N=C(\C(=O)N[C@@H]1C(=O)N2C(C(=O)[O-])=C(C[n+]3ccccc3)CS[C@H]12)c1csc(N)n1)C(=O)O [CAZ, ceftazidime] | > 2050 µg/mL | over 4 fold | 32.1 nM | 9.27 nM | ~ 5 fold | 512 µg/mL (≈ 937 µM) | 2050 µg/mL (≈ 3750 µM) | 256 µg/mL (≈ 468 µM) | 512 µg/mL (≈ 937 µM) | 0.25 µg/mL (≈ 0.457 µM) | 1.06 nM | 2050 µg/mL (≈ 3750 µM) | 0.25 µg/mL (≈ 0.457 µM) | 1020 µg/mL (≈ 1870 µM) | 0.25 µg/mL (≈ 0.457 µM) | –
C[C@]1(Cn2ccnn2)[C@H](C(=O)O)N2C(=O)C[C@H]2S1(=O)=O [TAZ, tazobactam] | – | – | – | 2490 ± 510 nM | less than 2 fold | – | – | – | – | – | 2120 ± 340 nM | – | – | – | – | 760 ± 70 nM
